Results taken from patent US20240279221A1, “HETEROCYCLIC COMPOUNDS AND METHODS OF USE” (Schrödinger, Inc., priority 2021, published 2024).

Legend:
human SOS1 = human SOS1 (Homo sapiens (Human), UniProt Q07889); experiment: Surface Plasmon Resonance (SPR) SOS1 Binding Assay; conditions: biotinylated SOS1 (res. 564-1049), 25° C., kinetic or steady state fit, read-out: KD for hSOS1
Protocol: Binding to SOS1 was measured using a SPR assay with purified recombinant human SOS1 substrate (res. 564-1049 with N-terminal Avi tag; purified and biotinylated based on Hillig, et al., Proc Natl Acad Sci USA (2019); 116(7):2551-2560). SPR measurements were performed on a Biacore 8K SPR instrument (GE Healthcare, Sweden). Assays were performed at 25° C. using Series S SA sensor chips pre-coated with streptavidin (GE Healthcare, Cat. BR100531). Biotinylated SOS1 diluted in sample buffer (20 mM Tris HCl, 150 mM NaCl, 1 mM DTT, 0.05% TWEEN 20, 1 mM MgCl2, pH 8.0) was captured to one flow cell of the chip to about 3,000 resonance units (RU) using sample buffer supplemented with 5% DMSO as a running buffer. Serial dilutions of the assayed compounds in the running buffer at 100, 50 or 0.5 μM were injected for 60 s at a flow rate of 30 μL/min and association phases were recorded. Dissociation of the samples was monitored for 600 s. Data processing was performed using Biacore Insight Software (Biacore, GE Healthcare). Sensorgrams recorded on a SA flow cell without captured protein were subtracted from sensorgrams recorded on the SOS1 surface. Blank injections of running buffer were used for double referencing and solvent correction was applied to all sample sensorgrams to correct for buffer mismatches. KDs were estimated using a kinetic or steady state, where applicable, fitting model describing a reversible equilibrium with 1:1 binding between SOS1 and the compound.

[1] = target: SOS1:KRAS (G12C) interaction (Homo sapiens (Human), UniProt Q07889); experiment: SOS1-KRas(G12C) FRET Assay; type: binding; conditions: 0.5 nM His10-SOS1 (res. 564-1049), 2.5 nM GST-KRAS (res. 1-169, G12C); read-out: SOS-KRas(G12C) FRET IC50
Procedure, shortened: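 Compounds were pre-incubated 15 min at 25° C with SOS1 (His10, res. 564-1049; 0.5 nM final) and anti-6His-XL665, then GST-KRAS G12C (res. 1-169; 2.5 nM final) with anti-GST-Eu(K) was added for 2 h at RT. The buffer was PBS, 0.1% BSA, 5 mM MgCl2, 100 mM KF, 5 mM DTT with 0.5% DMSO. The 665/615 nm signal was normalised to DMSO and no-SOS1 controls, and IC50 and Hill coefficient were fitted by non-linear regression.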

Sequence of SOS1:KRAS (G12C) interaction (Q07889 564-1049, stated change not applied): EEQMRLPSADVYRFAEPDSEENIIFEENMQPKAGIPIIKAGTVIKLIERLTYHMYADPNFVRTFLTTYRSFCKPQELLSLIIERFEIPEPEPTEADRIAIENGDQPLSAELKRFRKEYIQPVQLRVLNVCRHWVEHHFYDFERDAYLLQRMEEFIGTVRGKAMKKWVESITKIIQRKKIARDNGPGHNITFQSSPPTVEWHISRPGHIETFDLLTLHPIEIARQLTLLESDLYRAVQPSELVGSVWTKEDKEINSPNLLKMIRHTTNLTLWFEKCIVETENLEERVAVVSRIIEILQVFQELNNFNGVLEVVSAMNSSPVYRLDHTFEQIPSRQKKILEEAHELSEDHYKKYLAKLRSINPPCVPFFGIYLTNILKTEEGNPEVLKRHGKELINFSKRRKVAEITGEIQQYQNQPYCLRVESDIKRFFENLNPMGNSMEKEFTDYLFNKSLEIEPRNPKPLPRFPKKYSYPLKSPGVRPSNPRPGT
Sequence of human SOS1 (Q07889 564-1049): as the sequence (Q07889 564-1049, stated change not applied) above

Kd (human SOS1) [nM] | IC50 [1] [nM] | SMILES
51 | 476 | Cc1c([C@@H](C)Nc2nn(C)c(=O)c3c(OCC4CC4)c(=O)n(C4CC4)cc23)cccc1C(F)(F)F [Example 82, (R)-6-cyclopropyl-8-(cyclopropylmethoxy)-2-methyl-4-((1-(2-methyl-3-(trifluoromethyl)phenyl)ethyl)amino)-2,6-dihydropyrido[3,4-d]pyridazine-1,7-dione]
42 | 61.9 | Cc1c([C@@H](C)Nc2nn(C)c(=O)c3cc(=O)n([C@H]4C[C@H](n5ccnc5)C4)cc23)cccc1C(F)(F)F [Example 29, 6-((1r,3R)-3-(1H-imidazol-1-yl)cyclobutyl)-2-methyl-4-(((R)-1-(2-methyl-3-(trifluoromethyl)phenyl)ethyl)amino)-2,6-dihydropyrido[3,4-d]pyridazine-1,7-dione]
12 | 16.7 | C[C@@H](Nc1nn(C)c(=O)c2cc(=O)n(C3(C(F)F)CC3)cc12)c1cccc(C(F)(F)C(C)(C)O)c1F [Example 70, (R)-4-((1-(3-(1,1-difluoro-2-hydroxy-2-methylpropyl)-2-fluorophenyl)ethyl)amino)-6-(1-(difluoromethyl)cyclopropyl)-2-methyl-2,6-dihydropyrido[3,4-d]pyridazine-1,7-dione]
69 | 91 | Cc1c(=O)n(C2(C(F)F)CC2)cc2c(N[C@H](C)c3cccc(C(F)F)c3F)nn(C)c(=O)c12 [Example 74, (R)-4-((1-(3-(difluoromethyl)-2-fluorophenyl)ethyl)amino)-6-(1-(difluoromethyl)cyclopropyl)-2,8-dimethyl-2,6-dihydropyrido[3,4-d]pyridazine-1,7-dione]
303 | 302 | Cc1c([C@@H](C)Nc2nn(C)c(=O)c3c(N(C)C)c(=O)n(C4CC4)cc23)cccc1C(F)(F)F [Example 80, (R)-6-cyclopropyl-8-(dimethylamino)-2-methyl-4-((1-(2-methyl-3-(trifluoromethyl)phenyl)ethyl)amino)-2,6-dihydropyrido[3,4-d]pyridazine-1,7-dione]
13 | 51.3 | COc1c(=O)n(C2CCCCC2)cc2c(N[C@H](C)c3cccc(C(F)F)c3F)nn(C)c(=O)c12 [Example 49, (R)-6-cyclohexyl-4-((1-(3-(difluoromethyl)-2-fluorophenyl)ethyl)amino)-8-methoxy-2-methyl-2,6-dihydropyrido[3,4-d]pyridazine-1,7-dione]
11 | 48.7 | C[C@@H](Nc1nn(C)c(=O)c2cc(=O)n([C@H]3CCOC(C)(C)C3)cc12)c1cccc(C(F)F)c1F (single isomer, unassigned) [Example 83]
14 | 27.9 | COc1c(=O)n(C2CCOCC2)cc2c(N[C@H](C)c3cccc(C(F)(F)C(C)(C)O)c3F)nn(C)c(=O)c12 [Example 41, (R)-4-((1-(3-(1,1-difluoro-2-hydroxy-2-methylpropyl)-2-fluorophenyl)ethyl)amino)-8-methoxy-2-methyl-6-(tetrahydro-2H-pyran-4-yl)-2,6-dihydropyrido[3,4-d]pyridazine-1,7-dione]
60 | 68.3 | C[C@@H](Nc1nn(C)c(=O)c2c(Br)c(=O)n(C3(C(F)F)CC3)cc12)c1cccc(C(F)F)c1F [Example 72, (R)-8-bromo-4-((1-(3-(difluoromethyl)-2-fluorophenyl)ethyl)amino)-6-(1-(difluoromethyl)cyclopropyl)-2-methyl-2,6-dihydropyrido[3,4-d]pyridazine-1,7-dione]
63 | 345 | Cc1c([C@@H](C)Nc2nn(C)c(=O)c3c(Br)c(=O)n(C4CC4)cc23)cccc1C(F)(F)F [Example 3, (R)-8-bromo-6-cyclopropyl-2-methyl-4-((1-(2-methyl-3-(trifluoromethyl)phenyl)ethyl)amino)-2,6-dihydropyrido[3,4-d]pyridazine-1,7-dione]
10 | 34.8 | C[C@@H](Nc1nn(C)c(=O)c2cc(=O)n(C34CC(C(=O)N(C)C)(C3)C4)cc12)c1cccc(C(F)F)c1F [Example 69, (R)-3-(4-((1-(3-(difluoromethyl)-2-fluorophenyl)ethyl)amino)-2-methyl-1,7-dioxo-1,7-dihydropyrido[3,4-d]pyridazin-6(2H)-yl)-N,N-dimethylbicyclo[1.1.1]pentane-1-carboxamide]
43 | 160 | C[C@@H](Nc1nn(C)c(=O)c2cc(=O)n([C@@H]3CCCOC3)cc12)c1cccc(C(F)F)c1F (single isomer, unassigned) [Example 39]
134 | 376 | Cc1c([C@@H](C)Nc2nn(C)c(=O)c3c(OC(C)C)c(=O)n(C4CC4)cc23)cccc1C(F)(F)F [Example 81, (R)-6-cyclopropyl-8-isopropoxy-2-methyl-4-((1-(2-methyl-3-(trifluoromethyl)phenyl)ethyl)amino)-2,6-dihydropyrido[3,4-d]pyridazine-1,7-dione]
34 | 239 | Cc1c([C@@H](C)Nc2nn(CCN)c(=O)c3cc(=O)n(C4CC4)cc23)cccc1C(F)(F)F [Example 24, (R)-2-(2-aminoethyl)-6-cyclopropyl-4-((1-(2-methyl-3-(trifluoromethyl)phenyl)ethyl)amino)-2,6-dihydropyrido[3,4-d]pyridazine-1,7-dione]
259 | 1050 | Cc1c([C@@H](C)Nc2nn(C)c(=O)c3c(C)c(=O)n(C4CC4)cc23)cccc1C(F)(F)F [Example 7, (R)-6-cyclopropyl-2,8-dimethyl-4-((1-(2-methyl-3-(trifluoromethyl)phenyl)ethyl)amino)-2,6-dihydropyrido[3,4-d]pyridazine-1,7-dione]
229 | 1050 | C[C@@H](Nc1nn(C)c(=O)c2cc(=O)n([C@@H]3CCOC[C@@H]3F)cc12)c1cccc(C(F)F)c1F (single isomer, unassigned) [Example 32]
29 | 54.4 | C[C@@H](Nc1nn(C)c(=O)c2cc(=O)n(C34CC(N5CCOCC5)(C3)C4)cc12)c1cccc(C(F)F)c1F [Example 50, (R)-4-((1-(3-(difluoromethyl)-2-fluorophenyl)ethyl)amino)-2-methyl-6-(3-morpholinobicyclo[1.1.1]pentan-1-yl)-2,6-dihydropyrido[3,4-d]pyridazine-1,7-dione]
76 | 272 | C[C@@H](Nc1nn(C)c(=O)c2cc(=O)n([C@@]3(C)CCOC3)cc12)c1cccc(C(F)F)c1F (single isomer, unassigned) [Example 52]
34 | 54.9 | C[C@@H](Nc1nn(C)c(=O)c2cc(=O)n(C3CC3)cc12)c1cccc(C(F)(F)C(C)(C)O)c1F [Example 42, (R)-6-cyclopropyl-4-((1-(3-(1,1-difluoro-2-hydroxy-2-methylpropyl)-2-fluorophenyl)ethyl)amino)-2-methyl-2,6-dihydropyrido[3,4-d]pyridazine-1,7-dione]
74 | 350 | Cc1c([C@@H](C)Nc2nn(C)c(=O)c3cc(=O)n(C4CCNCC4)cc23)cccc1C(F)(F)F [Example 22, (R)-2-methyl-4-((1-(2-methyl-3-(trifluoromethyl)phenyl)ethyl)amino)-6-(piperidin-4-yl)-2,6-dihydropyrido[3,4-d]pyridazine-1,7-dione]
